Experimental data reported in article PMC10303384, “The Effect of Terbinafine and Its Ionic Salts on Certain Fungal Plant Pathogens” (Molecules, 2023).
Read-outs that look alike come from different tables or passages of the source.

What was measured:
[1] = Solubility of saturated solutions by HPLC at 25 °C; assay type: physicochemical
From the text: The filtrate was then passed through a 0.22 μm nylon membrane filter and subjected to HPLC analysis. Based on Wang’s report about the chromatographic parameters, modifications to the mobile phase ratio were made. The replicability of the results was ensured by performing each measurement in triplicate.

[2] = Solubility classification in representative solvents (Vogel protocol); assay type: physicochemical; conditions: thermodynamic from solid, 25 °C, test amount 0.1 g
Method: This investigation details how to determine the solubility of terbinafine and its salts, guided by the experimental protocol in Vogel’s Textbook of Practical Organic Chemistry. Based on the Snyder polarity index values of the representative solvents, each solvent was tested for its ability to dissolve the target analytes. The solubility data was classified into three categories based on the observed extent of dissolution. […] The experimental procedures were performed at 25 °C and under ambient pressure.

Valsa malicola (V. mali) = assay: In vitro fungicidal activity, mycelial (hyphae) growth inhibition on PDA; assay type: cell-based
[3] = tested on: Rhizoctonia solani (R. solani); assay: microbe, parasite or virus in culture; assay type: cell-based
[4] = tested on: Botrytis cinerea (B. cinerea); assay: In vitro fungicidal activity, mycelial (hyphae) growth inhibition on PDA; assay type: cell-based
[5] = tested on: Pyricularia oryzae (P. oryzae); assay: microbe, parasite or virus in culture; assay type: cell-based; conditions: for EC50: P. oryzae
[6] = Critical micelle concentration by electrical conductivity; conditions: 25 °C
Method: The critical micelle concentrations (CMCs) of the TISs were measured using electrical conductivity at 25 °C, as shown in Figure S16.
The critical micelle concentrations (CMCs) of all the TISs were determined using an electrical conductivity meter (Leica Desktop Conductivity Meter DDSJ-308F, Shanghai Oustor Industrial Co., Ltd. Shanghai, China).

[7] = tested on: Alternaria solani (A. solani); assay: In vitro fungicidal activity, mycelial (hyphae) growth inhibition on PDA; assay type: cell-based
[8] = Surface tension of saturated aqueous solutions, Du Noüy ring method; conditions: 25 °C
Method: This method involved adjusting the stage positioning of the solvent container such that a platinum ring could be immersed below the liquid interface or pulled through the meniscus. […] The maximum force was recorded as the surface tension of the solvent. To ensure accuracy, the platinum ring was thoroughly cleaned between each measurement through rinsing with double-distilled water and wiping it dry. The surface tension determination was performed in quadruplicate.

[9] = tested on: Fusarium graminearum (F. graminearum); assay: microbe, parasite or virus in culture; assay type: cell-based
[10] = tested on: Pythium aphanidermatum (P. aphanidermatum); assay: In vitro fungicidal activity, mycelial (hyphae) growth inhibition on PDA; assay type: cell-based
[11] = tested on: Phomopsis capsici (P. capsica); assay: as above; assay type: cell-based
[12] = 50 mg/L, mean ± SD of three replicates

SMILES: CN(C/C=C/C#CC(C)(C)C)Cc1cccc2ccccc12.O=C(O)/C=C/C(=O)O [TIS 4, (E)-N,6,6-trimethyl-N-(naphthalen-1-ylmethyl)hept-2-en-4-yn-1-aminium (E)-3-carboxyacrylate]
- solubility at 15 min ([1]; acetone, organic solvent or mixture, thermodynamic from solid, Table S1, read-out: Solubility, Acetone): 2070 µM
- solubility at 15 min ([1]; acetonitrile, organic solvent or mixture, thermodynamic from solid, Table S1, read-out: Solubility, Acetonitrile): 301 µM
- solubility at 15 min ([1]; chloroform, organic solvent or mixture, thermodynamic from solid, Table S1, read-out: Solubility, Chloroform): 321 µM
- solubility at 15 min ([1]; ethyl acetate, organic solvent or mixture, thermodynamic from solid, Table S1, read-out: Solubility, Ethyl acetate): 880 µM
- solubility at 15 min ([1]; isopropanol, organic solvent or mixture, thermodynamic from solid, Table S1, read-out: Solubility, Isopropanol): 1920 µM
- solubility at 15 min ([1]; methanol, organic solvent or mixture, thermodynamic from solid, Table S1, read-out: Solubility, Methanol): 7750 µM
- solubility at 15 min ([1]; n-hexane, organic solvent or mixture, thermodynamic from solid, Table S1, read-out: Solubility, n-Hexane): 70.9 µM
- solubility at 15 min ([1]; toluene, organic solvent or mixture, thermodynamic from solid, Table S1, read-out: Solubility, Toluene): 0.261 µM
- solubility at 15 min ([1]; water, read-out: water solubility): 1920 µM
- solubility at 15 min ([1]; water, thermodynamic from solid, Table S1, read-out: Solubility, Water): 1920 µM
- solubility ([2]; DMSO, organic solvent or mixture, Snyder polarity index 6.5, read-out: Solubility in DMSO): > 100 mg/mL
- solubility ([2]; acetone, organic solvent or mixture, Snyder polarity index 5.1, read-out: Solubility in Acetone): < 33.3 mg/mL
- solubility ([2]; acetonitrile, organic solvent or mixture, Snyder polarity index 6.2, read-out: Solubility in Acetonitrile): < 33.3 mg/mL
- solubility ([2]; chloroform, organic solvent or mixture, Snyder polarity index 4.1, read-out: Solubility in Chloroform): < 33.3 mg/mL
- solubility ([2]; ethyl acetate, organic solvent or mixture, Snyder polarity index 4.3, read-out: Solubility in Ethyl acetate): < 33.3 mg/mL
- solubility ([2]; isopropanol, organic solvent or mixture, read-out: Solubility in Isopropanol): < 33.3 mg/mL
- solubility ([2]; methanol, organic solvent or mixture, Snyder polarity index 6.6, read-out: Solubility in Methanol): < 33.3 mg/mL
- solubility ([2]; n-hexane, organic solvent or mixture, Snyder polarity index 0.0, read-out: Solubility in n-Hexane): < 33.3 mg/mL
- solubility ([2]; toluene, organic solvent or mixture, Snyder polarity index 2.3, read-out: Solubility in Toluene): < 33.3 mg/mL
- solubility ([2]; water, Snyder polarity index 9.0, read-out: Solubility in Water): < 33.3 mg/mL
- EC50 (Valsa malicola (V. mali)): 1.88 µg/mL
- Inhibition Rate at 50 mg/L (%) V. m (Valsa malicola (V. mali); 50 mg/L): 100 ± 0%
- EC50 (Valsa malicola (V. mali); read-out: EC50 (μmol/L)): 4.6 µmol/L
- Inhibition Rate at 50 mg/L (%) R. s ([3]; 50 mg/L): 85.82 ± 1.51%
- EC50 ([3]; Rhizoctonia solani): 2.3 µg/mL
- EC50 ([3]; read-out: EC50 (μmol/L)): 5.65 µmol/L
- Inhibition Rate at 50 mg/L (%) B. c ([4]; 50 mg/L): 100 ± 0%
- EC50 ([4]; Botrytis cinerea): 0.15 µg/mL
- EC50 ([4]; read-out: EC50 (μmol/L)): 0.36 µmol/L
- Inhibition Rate at 50 mg/L (%) P. o [5, 12]: 98.7 ± 0.54%
- EC50 ([5]; Pyricularia oryzae): 0.75 µg/mL
- EC50 ([5]; read-out: EC50 (μmol/L)): 1.84 µmol/L
- critical micelle concentration (CMC) [6]: 0.31 mmol/L
- Inhibition Rate at 50 mg/L (%) A. s ([7]; 50 mg/L): 100 ± 0%
- EC50 ([7]; Alternaria solani): 0.11 µg/mL
- EC50 ([7]; read-out: EC50 (μmol/L)): 0.28 µmol/L
- surface tension of the saturated aqueous solution [8]: 55.68 mN·m^−1
- Inhibition Rate at 50 mg/L (%) F. g [9, 12]: 100 ± 0%
- higher bioactivity compared to terbinafine ([9]; F. graminearum, from EC50): 16%
- EC50 ([9]; Fusarium graminearum, F. graminearum): 0.09 µg/mL
- EC50 ([9]; read-out: EC50 (μmol/L), F. graminearum): 0.21 µmol/L
- Inhibition Rate at 50 mg/L (%) P. a [10]: 65.23 ± 0.47%
- Inhibition Rate at 50 mg/L (%) P. c [11]: 47.64 ± 1.58%
